Reference: the NIST ThermoML archive (doi:10.1016/j.jct.2012.08.030)

Key:
[1] = refractive index (Na D-line) (dimensionless); xn = mol fraction of the nth substance listed; conditions: 101.3 kPa, Liquid, Standard Abbe refractometry
[2] = xn = mol fraction of the nth substance listed; conditions: 101.3 kPa, Liquid; for speed of sound: Sing-around technique in a fixed-path interferometer; for mass density: Vibrating tube method

CCCCn1cc[n+](C)c1.COS(=O)(=O)[O-] [1-butyl-3-methylimidazolium methyl sulfate] + CCCO
Conditions	mass density, [2] [kg/m3]	refractive index, [1]	speed of sound, [2] [m/s]
298.15 K, x1 = 0.0482	852.432	1.39591	1242.8
298.15 K, x1 = 0.0965	896.455	1.40632	1276
298.15 K, x1 = 0.1937	967.583	1.42298	1338.1
298.15 K, x1 = 0.2929	1023.11	1.43588	1394.2
298.15 K, x1 = 0.3903	1066.53	1.44583	1443.9
298.15 K, x1 = 0.4958	1104.3	1.45448	1491.7
298.15 K, x1 = 0.59	1132.04	1.46078	1529.8
298.15 K, x1 = 0.6907	1156.89	1.46636	1566.3
298.15 K, x1 = 0.7981	1179.34	1.47134	1601.1
298.15 K, x1 = 0.8932	1196.47	1.47515	1629
298.15 K, x1 = 0.951	1205.24	1.4776	1643.1
298.15 K, x1 = 1	1212.06	1.47824	1654.6
303.15 K, x1 = 0.0482	848.503	1.39407	1227
303.15 K, x1 = 0.0965	892.596	1.40459	–
303.15 K, x1 = 0.1937	963.817	1.42138	1323.8
303.15 K, x1 = 0.2929	1019.43	1.43433	1380.5
303.15 K, x1 = 0.3903	1062.93	1.44433	1430.6
303.15 K, x1 = 0.4958	1100.77	1.45302	1478.8
303.15 K, x1 = 0.59	1128.56	1.45937	1517.2
303.15 K, x1 = 0.6907	1153.44	1.46499	1553.9
303.15 K, x1 = 0.7981	1175.92	1.46997	1588.9
303.15 K, x1 = 0.8932	1192.93	1.47378	1616.9
303.15 K, x1 = 0.951	1201.87	1.47628	1630.9
303.15 K, x1 = 1	1208.7	1.47704	1642.2
308.15 K, x1 = 0.0482	844.545	1.39212	1211.1
308.15 K, x1 = 0.0965	888.716	1.40276	1245.5
308.15 K, x1 = 0.1937	960.044	1.41966	1309.3
308.15 K, x1 = 0.2929	1015.75	1.43273	1366.6
308.15 K, x1 = 0.3903	1059.34	1.4428	1417.3
308.15 K, x1 = 0.4958	1097.25	1.45154	1465.8
308.15 K, x1 = 0.59	1125.08	1.45793	1504.5
308.15 K, x1 = 0.6907	1150	1.46358	1541.4
308.15 K, x1 = 0.7981	1172.52	1.46856	1576.5
308.15 K, x1 = 0.8932	1189.33	1.47238	1604.7
308.15 K, x1 = 0.951	1198.5	1.47491	1618.7
308.15 K, x1 = 1	1205.35	1.47577	1630
313.15 K, x1 = 0.0482	840.564	1.39019	1195.2
313.15 K, x1 = 0.0965	884.815	1.4009	1230.2
313.15 K, x1 = 0.1937	956.26	1.41794	1294.9
313.15 K, x1 = 0.2929	1012.08	1.43111	1352.8
313.15 K, x1 = 0.3903	1055.75	1.44126	1404
313.15 K, x1 = 0.4958	1093.74	1.45008	1453
313.15 K, x1 = 0.59	1121.62	1.45649	1492
313.15 K, x1 = 0.6907	1146.58	1.46215	1529.1
313.15 K, x1 = 0.7981	1169.13	1.46715	1564.4
313.15 K, x1 = 0.8932	1185.78	1.4709	1592.5
313.15 K, x1 = 0.951	1195.15	1.47354	1606.6
313.15 K, x1 = 1	1202.01	1.47443	1617.9
